From patent US6900219B2, “ABCA-1 elevating compounds” (CV Therapeutics, Inc., priority 2002, dated 2005) come the findings set out here.

The experiment relates to ABCA-1 gene. The experiment is described as follows: compounds tested and found to elevate cellular expression of the ABCA-1 gene (Examples 1-6; test not named). The class given is cell-based. The method, then: Activity testing is conducted as described in those patents and patent applications referenced above, and in the Examples below, and by methods apparent to one skilled in the art.
Regarding `O=C1CSC(NC(=O)c2ccc(F)cc2)=N1` [(4-fluorophenyl)-N-(4-oxo(1,3-thiazolin-2-yl))carboxamide], the “cellular expression of the ABCA-1 gene” value is on record as “elevate cellular expression of the ABCA-1 gene”.

Consider `COc1ccc(C(=O)NC2=NCCS2)cc1` [(4-methoxyphenyl)-N-(1,3-thiazolin-2-yl)carboxamide], for which the “cellular expression of the ABCA-1 gene” value was “elevate cellular expression of the ABCA-1 gene”.

Consider `COc1ccc(C(=O)NCCc2ccccn2)cc1` [(4-methoxyphenyl)-N-(2-(2-pyridyl)ethyl)carboxamide], for which the “cellular expression of the ABCA-1 gene” value is on record as “elevate cellular expression of the ABCA-1 gene”.

Take `COc1ccc(C(=O)Nc2nc(-c3ccccc3)cs2)cc1` [(4-methoxyphenyl)-N-(4-phenyl(1,3-thiazol-2-yl))carboxamide]: the “cellular expression of the ABCA-1 gene” value is on record as “elevate cellular expression of the ABCA-1 gene”.

As to `Cc1ccc(C(=O)NC2=NCCS2)cc1` [(4-methylphenyl)-N-(1,3-thiazolin-2-yl)carboxamide], the “cellular expression of the ABCA-1 gene” value is recorded as “elevate cellular expression of the ABCA-1 gene”.

On to `Cc1ccc(C(=O)NCCc2ccccn2)cc1` [(4-methylphenyl)-N-(2-(2-pyridyl)ethyl)carboxamide], for which the “cellular expression of the ABCA-1 gene” value is “elevate cellular expression of the ABCA-1 gene”.

With `Cc1ccc(C(=O)NC2=NC(=O)CS2)cc1` [(4-methylphenyl)-N-(4-oxo(1,3-thiazolin-2-yl))carboxamide], the “cellular expression of the ABCA-1 gene” value is given as “elevate cellular expression of the ABCA-1 gene”.

For the molecule `O=C1CSC(NC(=O)c2ccc(OC(F)(F)F)cc2)=N1` [(4-trifluoromethoxyphenyl)-N-(4-oxo(1,3-thiazolin-2-yl))carboxamide], the “cellular expression of the ABCA-1 gene” value was “elevate cellular expression of the ABCA-1 gene”.

For the molecule `N#Cc1c(NC(=O)c2ccc(Br)o2)sc2ccccc12` [(5-bromo(2-furyl)-N-(3-cyanobenzo[b]thiophen-2-yl)carboxamide], the “cellular expression of the ABCA-1 gene” value was “elevate cellular expression of the ABCA-1 gene”.

Consider `CCCCNC(=O)N(Cc1ccco1)C(C)c1nc2cc(Cl)ccc2c(=O)n1-c1ccc(C)cc1` (stereo not shown) [(butylamino)-N-{[7-chloro-3-(4-methylphenyl)-4-oxo(3-hydroquinazolin-2-yl)]ethyl}-N-(2-furylmethyl)carboxamide], for which the “cellular expression of the ABCA-1 gene” value was “elevate cellular expression of the ABCA-1 gene”.

In the case of `CCCCNC(=O)N(CCC(C)C)C(C)c1nc2cc(Cl)ccc2c(=O)n1-c1ccc(C)cc1` (stereo not shown) [(butylamino)-N-{[7-chloro-3-(4-methylphenyl)-4-oxo(3-hydroquinazolin-2-yl)]ethyl}-N-(3-methylbutyl)carboxamide], the “cellular expression of the ABCA-1 gene” value is given as “elevate cellular expression of the ABCA-1 gene”.

Consider `O=C(Nc1ccc2c(c1)CCC2)NC1CCCCC1` [(cyclohexylamino)-N-indan-5-ylcarboxamide], for which the “cellular expression of the ABCA-1 gene” value is reported as “elevate cellular expression of the ABCA-1 gene”.

With `CN(C)c1ccc(CN(C(=O)Nc2ccccc2F)c2ccc3c(c2)CCC3)cc1` [({[4-(dimethylamino)phenyl]methyl}indan-5-ylamino)-N-(2-fluorophenyl)carboxamide], the “cellular expression of the ABCA-1 gene” value is “elevate cellular expression of the ABCA-1 gene”.

As for `CCc1c(C(=O)NC(C)C(C)C)cnn1-c1nc(-c2ccc(C)cc2)cs1` (stereo not shown) [N-(1,2-dimethylpropyl){5-ethyl-1-[4-(4-methylphenyl)(1,3-thiazol-2-yl)]pyrazol-4-yl}carboxamide], the “cellular expression of the ABCA-1 gene” value is listed as “elevate cellular expression of the ABCA-1 gene”.

Regarding `O=C(Nc1nccs1)c1ccc(OC(F)(F)F)cc1` [N-(1,3-thiazol-2-yl)[4-(trifluoromethoxy)phenyl]carboxamide], the “cellular expression of the ABCA-1 gene” value is reported as “elevate cellular expression of the ABCA-1 gene”.

As for `O=C(NC1=NCCS1)c1ccc(C(F)(F)F)cc1` [N-(1,3-thiazolin-2-yl)[4-(trifluoromethyl)phenyl]carboxamide], the “cellular expression of the ABCA-1 gene” value is recorded as “elevate cellular expression of the ABCA-1 gene”.

Regarding `CCCCN(CC(=O)N1CCc2ccccc2C1)C(=O)Nc1cccc(Cl)c1Cl` [N-(2,3-dichlorophenyl)[butyl(2-oxo-2-(2-1,2,3,4-tetrahydroisoquinolyl)ethyl)amino]carboxamide], the “cellular expression of the ABCA-1 gene” value is on record as “elevate cellular expression of the ABCA-1 gene”.

`Cc1ccc(C)c(NC(=O)c2sc3ccccc3c2Cl)c1` [N-(2,5-dimethylphenyl)(3-chlorobenzo[b]thiophen-2-yl)carboxamide]: the “cellular expression of the ABCA-1 gene” value is reported as “elevate cellular expression of the ABCA-1 gene”.

Regarding `Cc1cccc(C)c1NC(=O)c1sc2ccccc2c1Cl` [N-(2,6-dimethylphenyl)(3-chlorobenzo[b]thiophen-2-yl)carboxamide], the “cellular expression of the ABCA-1 gene” value is on record as “elevate cellular expression of the ABCA-1 gene”.

Regarding `O=C(Nc1cccc(Cl)c1)Nc1ccccc1Cl` [N-(2-chlorophenyl)[(3-chlorophenyl)amino]carboxamide], the “cellular expression of the ABCA-1 gene” value is reported as “elevate cellular expression of the ABCA-1 gene”.

Regarding `O=C(Nc1cccc(Cl)c1)Nc1ccccc1F` [N-(2-fluorophenyl)[(3-chlorophenyl)amino]carboxamide], the “cellular expression of the ABCA-1 gene” value is “elevate cellular expression of the ABCA-1 gene”.

As to `COc1cc2c(cc1NC(=O)C(C)(C)C)oc1ccccc12` [N-(2-methoxydibenzo[b,d]furan-3-yl)-2,2-dimethylpropanamide], the “cellular expression of the ABCA-1 gene” value was “elevate cellular expression of the ABCA-1 gene”.

Turning to `CC(C)CN(C(=O)Nc1cccc2ccccc12)C(C)c1nc2ccccc2c(=O)n1-c1ccc2ccccc2c1` (stereo not shown) [N-(2-methylpropyl)(naphthylamino)-N-[(3-(2-naphthyl)-4-oxo(3-hydroquinazolin-2-yl))ethyl]carboxamide], the “cellular expression of the ABCA-1 gene” value is reported as “elevate cellular expression of the ABCA-1 gene”.

Turning to `CC(C)CN(C(=O)Nc1cccc(C(F)(F)F)c1)C(C)c1nc2ccccc2c(=O)n1-c1ccc2ccccc2c1` (stereo not shown) [N-(2-methylpropyl)-N-[(3-(2-naphthyl)-4-oxo(3-hydroquinazolin-2-yl))ethyl]{[3-(trifluoromethyl)phenyl]amino}carboxamide], the “cellular expression of the ABCA-1 gene” value was “elevate cellular expression of the ABCA-1 gene”.

For `CSc1ccc(NC(=O)N(CC(C)C)C(C)c2nc3ccccc3c(=O)n2-c2ccc3ccccc3c2)cc1` (stereo not shown) [N-(2-methylpropyl)[(4-methylthiophenyl)amino]-N-[(3-(2-naphthyl)-4-oxo(3-hydroquinazolin-2-yl))ethyl]carboxamide], the “cellular expression of the ABCA-1 gene” value was “elevate cellular expression of the ABCA-1 gene”.

Regarding `O=C(Nc1ccc2c(c1)OCCO2)c1ccc([N+](=O)[O-])cc1Cl` [N-(2H,3H-benzo[e]1,4-dioxan-6-yl)(2-chloro-4-nitrophenyl)carboxamide], the “cellular expression of the ABCA-1 gene” value is “elevate cellular expression of the ABCA-1 gene”.

Take `O=C(COCc1ccccc1)Nc1ccc2c(c1)OCCO2` [N-(2H,3H-benzo[e]1,4-dioxin-6-yl)-2-(phenylmethoxy)acetamide]: the “cellular expression of the ABCA-1 gene” value is given as “elevate cellular expression of the ABCA-1 gene”.

With `O=C(CCC1CCCC1)Nc1ccc2c(c1)OCCO2` [N-(2H,3H-benzo[e]1,4-dioxin-6-yl)-3-cyclopentylpropanamide], the “cellular expression of the ABCA-1 gene” value is “elevate cellular expression of the ABCA-1 gene”.

With `CC(C)(C)c1ccc(C(=O)Nc2ccc3c(c2)OCCO3)cc1` [N-(2H,3H-benzo[e]1,4-dioxin-6-yl)[4-(tert-butyl)phenyl]carboxamide], the “cellular expression of the ABCA-1 gene” value was “elevate cellular expression of the ABCA-1 gene”.

Regarding `O=C(Nc1ccc2c(c1)OCCO2)Nc1ccccc1Br` [N-(2H,3H-benzo[e]1,4-dioxin-6-yl)[(2-bromophenyl)amino]carboxamide], the “cellular expression of the ABCA-1 gene” value is “elevate cellular expression of the ABCA-1 gene”.

Take `O=C(Nc1ccc2c(c1)OCCO2)Nc1ccc([N+](=O)[O-])cc1Cl` [N-(2H,3H-benzo[e]1,4-dioxin-6-yl)[(2-chloro-4-nitrophenyl)amino]carboxamide]: the “cellular expression of the ABCA-1 gene” value was “elevate cellular expression of the ABCA-1 gene”.

With `O=C(Nc1ccc(Cl)c(Cl)c1)Nc1ccc2c(c1)OCCO2` [N-(2H,3H-benzo[e]1,4-dioxin-6-yl)[(3,4-dichlorophenyl)amino]carboxamide], the “cellular expression of the ABCA-1 gene” value is recorded as “elevate cellular expression of the ABCA-1 gene”.

For `O=C(Nc1ccc2c(c1)OCOC2)c1sc2ccccc2c1Cl` [N-(2H,4H-benzo[e]1,3-dioxan-7-yl)(3-chlorobenzo[b]thiophen-2-yl)carboxamide], the “cellular expression of the ABCA-1 gene” value is “elevate cellular expression of the ABCA-1 gene”.

As for `O=C(Nc1cccc(O)c1)Nc1ccc(Cl)c(Cl)c1` [N-(3,4-dichlorophenyl)[(3-hydroxyphenyl)amino]carboxamide], the “cellular expression of the ABCA-1 gene” value was “elevate cellular expression of the ABCA-1 gene”.

For `Cc1ccc(NC(=O)Nc2ccc(Cl)c(Cl)c2)cc1` [N-(3,4-dichlorophenyl)[(4-methylphenyl)amino]carboxamide], the “cellular expression of the ABCA-1 gene” value was “elevate cellular expression of the ABCA-1 gene”.

As to `O=C(NCC1CCCCC1)Nc1ccc(Cl)c(Cl)c1` [N-(3,4-dichlorophenyl)[(cyclohexylmethyl)amino]carboxamide], the “cellular expression of the ABCA-1 gene” value is “elevate cellular expression of the ABCA-1 gene”.

With `Cc1ccc(NC(=O)c2ccc3ccccc3c2)cc1C` [N-(3,4-dimethylphenyl)-2-naphthylcarboxamide], the “cellular expression of the ABCA-1 gene” value is recorded as “elevate cellular expression of the ABCA-1 gene”.

With `Cc1ccc(NC(=O)Nc2cccc(Cl)c2)cc1C` [N-(3,4-dimethylphenyl)[(3-chlorophenyl)amino]carboxamide], the “cellular expression of the ABCA-1 gene” value is “elevate cellular expression of the ABCA-1 gene”.

For `Cc1ccc(NC(=O)Nc2ccc(Cl)cc2)cc1C` [N-(3,4-dimethylphenyl)[(4-chlorophenyl)amino]carboxamide], the “cellular expression of the ABCA-1 gene” value is on record as “elevate cellular expression of the ABCA-1 gene”.

In the case of `O=C(Nc1cccc(Cl)c1)c1ccc2ccccc2c1` [N-(3-chlorophenyl)-2-naphthylcarboxamide], the “cellular expression of the ABCA-1 gene” value is reported as “elevate cellular expression of the ABCA-1 gene”.
